# Assay results reported in US3962321A, “Enhancement of coffee flavor” (General Foods Corporation, priority 1973, dated 1976).
# “Also recorded” adds a separate entry of the source.
# Columns and labels:
# [1] = Expert taster flavor and aroma levels (threshold, recognition, fatty flavor) in regular or soluble coffee brew; conditions: about 1 to 1.5% coffee solids brew; for Recognition Level: woody note
# Excerpt: The threshold level is that quantity of flavoring producing a change in cup flavor and aroma, but a change which cannot be described as a particular flavor. The recognition level is the quantity of flavoring which can be defined as imparting a woody note to the brew. The fatty level is that point where the undesirable fatty flavor becomes apparent and detracts from the woody character of the flavoring noted at lower levels.
# [2] = Taste comparison in freeze dried Maxim soluble coffee (Example XIII)
# [3] = Flavor comparison in 100% Robusta spray dried soluble coffee (Example XXIV); conditions: 2 ppb
# [4] = Taste comparison in instant Postum beverage (Example XXVI)
# Description: A solution of trans-2-nonenal was prepared by dissolving 20 mg of the aldehyde in 50 ml of ethanol. One half of a milliliter of the resulting solution was then dissolved in 50 ml of spring water to yield a 0.2 mg/50 ml solution. The spring water solution was employed to prepare enhanced instant Postum by adding a sufficient amount to two grams of Postum dissolved in 200 ml of boiling spring water to give 5, 10, 20, and 30 ppb concentrations of nonenal in the hot Postum beverage. These beverages were compared with a control of 2 grams Postum dissolved in 200 ml boiling spring water by several expert tasters.
# [5] = Taste comparison in freeze dried Maxim soluble coffee with steam generated aroma (Example XIV); conditions: 2 ppb
# [6] = Expert panel flavor evaluation in instant Maxwell House coffee (Example XVII); conditions: two parts per billion; 1.35% coffee solids
# Excerpt: An expert panel flavor evaluation was made of trans-2-nonenal, purified as in Example XVI, at a level of two parts per billion in instant Maxwell House brand soluble coffee at a 1.35% coffee solids concentration.
# [7] = Evaluation in various foodstuffs versus control (Example XXV)
# Description: To various foodstuffs is added minute amounts of the enhancing compounds of this invention at the proportions indicated. The foodstuffs are then evaluated by comparison to a control not containing the enhancer.
# [8] = Flavor effect in whisky and carbonated and non-carbonated beverages
# [9] = Taste comparison in instant Maxwell House coffee beverage (Example XI); conditions: for Taste comparison with control: 1.35% coffee solids (Example XIA)
# Excerpt: A. A taste comparison was made of instant Maxwell House brand coffee beverage containing 1.35% coffee solids enhanced with 1 ppb and 2 ppb trans-2-nonenal.
# B. Example XIA was repeated employing a broader range of flavor enhancement.
# [10] = Triangular odd cup flavor evaluation of retention on spray drying of coffee extract (Example XXI); assay type: physicochemical
# Description: To 500 ml of distilled water is added 2.34 mg of trans-2-nonenal dissolved in 1 ml of ethanol. The aqueous mix is added to 40 pounds of coffee extract (24.5% solids) and the mixture is spray dried.
# Unaromatized extract is spray dried umder equivalent conditions for use as a control. A flavor evaluation is made by dissolving 3.25 g of the aromatized coffee in eight ounces of hot water. Control cups are prepared by dissolving in each cup 3.25 g of control coffee in eight ounces of hot water and then adding thereto 10 microliters of a solution of 0.24 mg trans-2-nonenal in 5 ml of water.
# [11] = Flavor comparison in Sanka decaffeinated soluble coffee (Example XVIII); conditions: 2 ppb
# [12] = Taste comparison in spray dried instant Maxwell House coffee containing synthetic winey, buttery flavor (Example XII); conditions: 2 ppb; 1.35% coffee solids brew
# Excerpt: Spray dried instant Maxwell House brand coffee containing a synthetic, winey, buttery flavor was compared to an identical sample containing an additional 2ppb trans-2-nonenal.
# [13] = Flavor evaluation of retention on freeze drying of coffee extract (Example XX); assay type: physicochemical; conditions: theoretical 2 ppb
# Description: Trans-2-nonenal (5 mg in one ml of ethanol) is added to 500 ml of distilled water and the aqueous mixture poured into 52 pounds of coffee extract of 28.2% coffee solids. The coffee-nonenal mixture is stirred and then poured into trays and frozen to form 3/8 inch thick slabs. Control slabs are also prepared from the same extract without the addition of flavors.
# The slabs are freeze dried in a 50 square foot Stokes Freeze Drier under 150 microns pressure. […] Condenser temperature is maintained at -40°F.
# A flavor evaluation is made by dissolving 0.65 gms of trans-2-nonenal aromatized freeze dried coffee and 2.60 gms of freeze dried control in eight bunces of hot water to give a theoretical 2 ppb concentration. Control cups are prepared by dissolving 3.25 gms of freeze dried control coffee in eight ounces of hot water and adding thereto 10 microliters of a 5 ml aqueous solution containing 0.25 mg trans-2-nonenal to give a 2 ppb concentration.
# [14] = Flavor evaluation in water and soluble coffee (Example XVI)
# Excerpt: A ten percent ethanolic solution of trans-2-nonenal (Compagnie Parento, Croton-on-Hudson, New York) was passed through a Perkin-Elmer model 900 gas chromatography unit having a 6-foot by 1/8 inch column packed with 10% diethylene glycol succinate polyester on 80/90 Anakrom ABS.
# [15] = General flavor characterization by flavor experts; conditions: 50 ppm or higher
compound,measurement,setting,value
"CCCCCC/C=C/C1OCCO1 [1-Octenyl-1-dioxolane, trans-1-octenyl-2-dioxolane]",Threshold Level,[1],0.3 ppb
same,Undesired Fatty Flavor Becoming Apparent,[1],1000 ppb
same,Recognition Level,[1],0.8 ppb
CCCCCC/C=C\COC(C)=O [cis-2-nonenyl acetate],Threshold Level,[1],50 ppb
same,Undesired Fatty Flavor Becoming Apparent,[1],1500 ppb
same,Recognition Level,[1],150 ppb
CCCCCC/C=C/C=O [trans-2-nonenal],Taste comparison with control,[2]; 1 ppb,"while woodiness was not evident, there was an improved balanced cup flavor and a reduction in sourness"
same,Taste comparison with control,[2]; 2 ppb,"improved woody regular coffee note. In addition, the typically winey and buttery notes of the coffee were better balanced and the typical sourness of the brew was masked"
same,Flavor comparison with control,[3],improved woody cup flavor and aroma
same,Effect on molasses flavor and woody flavor of Postum,[4],reduced appreciably the characteristic molasses flavor of Postum and imparted a slight woody flavor
same,"Effect on sweet, cereal taste of Postum",[4],"significant reduction in the sweet, cereal taste of the beverage"
same,Taste preference,[4]; 5 ppb and 10 ppb,preferred
same,Flavor comparison with control,[5],"very good regular coffee flavor, the brew having improved cup flavor and lacking sourness when compared to the control"
same,Expert panel flavor evaluation,[6],slight spent grounds flavor which improved the regular brewed character of the coffee; also recorded: desirable blending or mixing of flavor and a secondary aromatic flavor similar to that produced by the addition of steam generated aroma
same,Evaluation,"[7]; Ex. 1 Cola beverage, 2 ppb",Woody
same,Evaluation,"[7]; Ex. 2 Pear nectar, 1 ppb",Increased pear flavor
same,Evaluation,"[7]; Ex. 3 Ginger ale, 2 ppb",Woody
same,Evaluation,"[7]; Ex. 5 Cranberry juice, 2 ppb",Woody
same,Evaluation,"[7]; Ex. 7 Condensed beef broth, 2 ppb",High woody
same,Evaluation,"[7]; Ex. 8 Root Beer beverage, 1 ppb",Enhanced flavor
same,Evaluation,"[7]; Ex. 8 Root Beer beverage, 2 ppb",High woody
same,Evaluation,"[7]; Ex. 9 Creme Soda, 2 ppb",High woody
same,Evaluation,"[7]; Ex. 11 Cherry gelatin dessert, 2 ppb",Woody
same,Evaluation,"[7]; Ex. 12 Artificially sweetened cola beverage, 2 ppb",Woody
same,Evaluation,"[7]; Ex. 13 Meat broth, 1 ppb",Higher flavor impact
same,Threshold Level,[1],0.05-0.2 ppb
same,Undesired Fatty Flavor Becoming Apparent,[1],16 ppb
same,Recognition Level,[1],0.4-0.6 ppb
same,Flavor in beverages,[8],low level woody note not detectable as coffee flavor which enhances the basic flavor of the beverage
same,Flavor Comments,[9]; 0.2 ppb in the brew,detectable subtle flavor
same,Flavor Comments,[9]; 0.4 ppb in the brew,subtle recognition of woodiness
same,Flavor Comments,[9]; 0.6 ppb in the brew,definite recognition of woodiness
same,Flavor Comments,[9]; 1 ppb in the brew,woody and smoother
same,Taste comparison with control,[9]; 1 ppb,"did not give a detectable woody flavor, but did balance or blend the coffee flavor and masked the caramel and acid flavor of the control"
same,Flavor Comments,[9]; 2 ppb in the brew,woody and groundsy
same,Taste comparison with control,[9]; 2 ppb,improved woody regular coffee flavor and lacked the typical caramel and acid notes of the control
same,Flavor Comments,[9]; 8 ppb in the brew,high woody impact
same,Flavor Comments,[9]; 16 ppb in the brew,tallowy flavor
same,Flavor Comments,[9]; 30 ppb in the brew,"burnt, fatty"
same,Flavor Comments,[9]; 40 ppb in the brew,"burnt, fatty and rancid"
same,Loss during spray drying,[10],no significant loss of trans-2-nonenal during spray drying
same,Difference between aromatized and control cups,"[10]; triangular, odd cup flavor evaluation",no difference between the cups
same,Flavor comparison with control,[11],improved woody flavor and good balance of cup flavor and aroma
same,Flavor comparison with identical sample without additive,[12],"very desirable balanced flavor, having prominent winey, buttery and woody regular coffee notes"
same,Loss of aroma during freeze drying,[13],slight loss of trans-2-nonenal aroma during freeze drying
same,Woody flavor of freeze dried aromatized sample relative to control,[13]; after freeze drying,about ninety
same,Flavor in water,[14]; 2 ppb and 20 ppb in water,regular coffee flavor characterized by experts as woody or spent grounds
same,Concentration at which expert tasters find undesirable flavors,[14]; not apparent to less skilled tasters,about 16 ppm
same,Flavor when tasted at conventional flavor concentrations,[15],"unpleasant, rancid fat flavor"
CCCCCC/C=C/C(OCC)OCC [trans-2-nonene diethyl acetal],Threshold Level,[1],0.02 ppb
same,Undesired Fatty Flavor Becoming Apparent,[1],1200 ppb
same,Recognition Level,[1],0.03 ppb
"CCCCCC/C=C/C(OC)OC [trans-2-nonene dimethyl Acetal, trans-2-nonene dimethyl acetal]",Threshold Level,[1],0.03 ppb
same,Undesired Fatty Flavor Becoming Apparent,[1],800 ppb
same,Recognition Level,[1],0.08 ppb
"CCCCCC/C=C/COC(C)=O [trans-2-nonenylacetate, Trans-2-nonenyl acetate]",Threshold Level,[1],100 ppb
same,Undesired Fatty Flavor Becoming Apparent,[1],1500 ppb
same,Recognition Level,[1],200 ppb
